Measurements from US20030166622A1, “Vitamin D derivatives with acyloxy groups in the side chains, process for their production, and the use for the production of pharmaceutical agents” (Schering AG, priority 2001, published 2003).
Entries after “also recorded” stand apart in the source; their conditions may differ.

Legend:
[1] = DNFB-induced allergic contact allergy in the mouse (DNFB-DTH); type: in vivo; conditions: for DR (Hypercalcemic threshold dose/ immunosuppressive threshold dose): therapeutic range, mouse, once daily intragastrically around sensitization, calcium level in urine as side-effect parameter; for activity in vivo (prevention of the formation of edemas): contact allergy in the mouse
From the text: 58, 179-204 (1999)]. The model of the dinitrofluorobenzene (DNFB)-induced allergic contact allergy in the mouse represents an inflammatory skin disease with the background of an inflammatory reaction of the delayed type (delayed type hypersensitivity; DTH). The inflammatory phase of the contact allergy is triggered by a multi-phase reaction. A repeated contact with the topically effective contact allergen DNFB (25 il of a 0.5% (w/v) DNFB solution in acetone/olive oil 4:1 [v/v] on the shaved abdomen with a surface area of about 10 cm^2 on test days 0. and 1.) triggers an immune reaction, which results in the sensitization of the animals against the specific agent, without “visible” symptoms occurring. Only after a sensitization time of 4-5 days, in which populations of DNFB-specific lymphocytes of “memory” type have formed in the draining lymph nodes, can a renewed contact (20 il of a 0.5% (w/v) DNFB solution in acetone/olive oil 4:1 [v/v]) trigger an inflammatory skin reaction with the contact allergen at any skin area (here: on both ears, treated surface area/ear about 2 cm^2). This second phase, which is also referred to as the trigger or “challenge,” ends in an eczematous lesion on the second contact site. The evaluation of the extent of the inflammatory reaction or the success of treatment is performed routinely 24 hours after the triggering, since at this time, the parameters that are to be analyzed (ear thickness and cell infiltration as a yardstick for the edema) have reached a plateau. The model of the DNFB-induced contact allergy allows the examination of the action of systemically or topically administered test substances with immunosuppressive/immunomodulating or inflammation-inhibiting properties. In the study on immunomodulating properties of calcitriol derivatives, the latter are administered once daily intragastrically in physiological common salt solution (0.9% NaCl) with an admixture of 0.085% Myrj 53) around the time of sensitization (beginning two days before and one day before sensitization, on the day of sensitization and on day 1 and 2 after sensitization). As side-effect parameters that are typical of vitamin D, the determination of the calcium level in the urine of the treated animals is used at the latest 24 hours after the last treatment with the substance. The calcium content is determined by flame-photometry. The significance of differences occurring between substance groups and controls as well as between test substance and reference substance are supported with suitable statistic processes. The therapeutic range of the test substances and calcitriol as a reference substance is indicated as a dose ratio DR (DR=factor of hypercalcemic threshold dose/immunosuppressive threshold dose).

[2] = acute hypercalcemic action in rats (serum calcium after one-time subcutaneous administration); type: in vivo, rat; conditions: relative to calcitriol, male rats
Protocol: To determine the acute hypercalcemic action of various calcitriol derivatives, the test that is described below is carried out:
The action of control (solution base), reference substance (1,25-dihydroxy vitamin D3=calcitriol) and test substance is tested in each case after one-time subcutaneous administration in groups of 10 healthy male rats (140-170 g). During the testing time, the rats are kept in special cages to determine the excretion of water and mineral substances. Urine is collected in 2 fractions (0-16 hours and 16-22 hours). An oral dose of calcium (0.1 mmol of calcium in 6.5% alpha-hydroxypropyl cellulose, 5 ml/animal) replaces at 1600 hours the calcium intake that is lacking by food deprivation. At the end of the test, the animals are sacrificed by decapitation and exsanguinated to determine the serum-calcium values. For the primary screening test in vivo, an individual standard dose (200 ig/kg) is tested. For selected substances, the result is supported by establishing a dose-effect relation.
A hypercalcemic action is shown in serum-calcium level values that are higher than in the control.
The significance of differences occurring between substance groups and controls as well as between test substance and reference substance are supported with suitable statistical processes.

HL 60 cells = test: differentiation induction of HL 60 cells to macrophages (NBT reduction); type: cell-based, human; conditions: relative to calcitriol; 96 hours incubation
Protocol: The differentiation-stimulating action of calcitriol analogs is also detected quantitatively.
It is known in the literature [D. J. Mangelsdorf et al., J. Cell. Biol. 98, 391 (1984)] that the treatment of human leukemia cells (promyelocyte cell line HL 60) in vitro with calcitriol induces the differentiation of cells to macrophages.
HL 60 cells are cultivated in tissue culture medium (RPMI 10% fetal calf serum) at 37° C. in an atmosphere of 5% CO2 in air.
For substance testing, the cells are centrifuged off, and 2.0×10^5 cells/ml in phenol red-free tissue culture medium are taken up. The test substances are dissolved in ethanol and diluted to the desired concentration with tissue culture medium without phenol red. The dilution stages are mixed with the cell suspension at a ratio of 1:10, and 100 il each of this cell suspension that is mixed with substance is pipetted into an indentation of a 96-hole plate. For control, a cell suspension is mixed analogously with the solvent.
After incubation for 96 hours at 37° C. in 5% CO2 in air, 100 il of an NBT-TPA solution (nitro blue tetrazolium (NBT), final concentration in the batch of 1 mg/ml, tetradecanoyl phorbolmyristate-13-acetate (TPA), final concentration in the batch of 2×10^−7 mol/l) is pipetted into each indentation of the 96-hole plate in the cell suspension.
By incubation for 2 hours at 37° C. and 5% CO2 in air, NBT is reduced to insoluble formazan because of the intracellular oxygen radical release, stimulated by TPA, in the cells that are differentiated to macrophages.
To complete the reaction, the indentations of the 96-hole plate are suctioned off, and the cells are affixed to the bottom of the plate by adding methanol and dried after affixing. To dissolve the intracellular formazan crystals that are formed, 100 il of potassium hydroxide (2 mol/l) and 100 il of dimethyl sulfoxide are pipetted into each indentation and ultrasonically treated for 1 minute. The concentration of formazan is measured by spectrophotometry at 650 nm.
As a yardstick for the differentiation induction of HL 60 cells to macrophages, the concentration of formed formazan applies.

vitamin D receptor = molecular target: T1, vitamin D receptor (Sus scrofa, UniProt A3RGC1); test: calcitriol-receptor test (competition with 3H-calcitriol, protein extract from intestines of juvenile pigs); conditions: for KF (competition factor: concentration of test substance / reference substance at 50% competition): relative to unlabeled calcitriol, 3H-calcitriol 5x10^-10 mol/l, 2 hours at 4° C; for activity in vitro: result in words, summary of the in vitro tests of the table (calcitriol-receptor test and HL 60)
T1 sequence (A3RGC1 1-427): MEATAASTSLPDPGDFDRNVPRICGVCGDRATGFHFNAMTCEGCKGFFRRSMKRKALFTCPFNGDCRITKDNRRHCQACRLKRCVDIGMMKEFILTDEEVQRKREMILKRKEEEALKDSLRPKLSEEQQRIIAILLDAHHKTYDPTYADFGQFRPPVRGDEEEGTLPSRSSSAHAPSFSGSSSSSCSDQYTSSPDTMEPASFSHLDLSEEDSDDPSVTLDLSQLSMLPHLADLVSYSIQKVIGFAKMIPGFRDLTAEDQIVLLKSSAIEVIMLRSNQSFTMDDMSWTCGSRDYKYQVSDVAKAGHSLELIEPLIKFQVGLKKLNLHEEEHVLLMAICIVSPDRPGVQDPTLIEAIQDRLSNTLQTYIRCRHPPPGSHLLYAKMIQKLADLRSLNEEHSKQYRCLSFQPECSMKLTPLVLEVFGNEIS
Protocol: It is carried out using a protein extract from the intestines of juvenile pigs. […] To this end, 250 il of a charcoal-dextran suspension is fed to each test tube and incubated at 4° C. for 20 minutes. Then, the samples are centrifuged at 10,000 g for 5 minutes at 4° C. The supernatant is decanted and measured in a á-counter after 1 hour of equilibration in Picofluor 15™.
The competition curves that are obtained at various concentrations of test substance as well as of reference substance (unlabeled calcitriol) at constant concentration of the reference substance (^3H-calcitriol) are placed in relation to one another, and a competition factor (KF) is determined.
It is defined as a quotient of the concentrations of the respective test substance and the reference substance, which are necessary for 50% competition:
KF=Concentration of test substance at 50% competition
Concentration of reference substance at 50% competition

With C=C1C(=CC=C2CCCC3(C)C2CCC3C(C)C=CC(O)C2(c3ncc(CCCC)o3)CC2)CC(O)CC1O [(5Z,7E,22E)-(1S,3R,24R)-25-(5-butyloxazole-2-yl)-26,27-cyclo-9,10-secocholesta-5,7,10(19),22-tetraene-1,3,24-triol, reference compound] the “DR (Hypercalcemic threshold dose/ immunosuppressive threshold dose)” value [1] was 1,000.

For C=C1/C(=C\C=C2/CCC[C@]3(C)[C@@H]([C@H](C)/C=C/[C@@H](O)C4(c5ncc(CCC)o5)CC4)CC[C@@H]23)C[C@@H](O)C[C@@H]1O [A, (5Z,7E,22E)-(1S,3R,24R)-25-(5-Propyloxazole-2-yl)-26,27-cyclo-9,10-secocholesta-5,7,10(19),22-tetraene-1,3,24-triol], the “DR (Ca) (dose ratio for hypercalcemia, test substance dose/reference substance dose for comparable actions)” value [2] was 300, the “DR (HL 60) (dose ratio test substance/reference substance for comparable semi-maximum actions)” value (HL 60 cells) was 1.9 and the “KF (competition factor: concentration of test substance / reference substance at 50% competition)” value (vitamin D receptor) was 2.

In the case of C=C1/C(=C\C=C2/CCC[C@]3(C)[C@@H]([C@H](C)/C=C/[C@@H](O)C4(c5ncc(C)o5)CC4)CC[C@@H]23)C[C@@H](O)C[C@@H]1O [B, (5Z,7E,22E)-(1S,3R,24R)-25-(5-Methyloxazole-2-yl)-26,27-cyclo-9,10-secocholesta-5,7,10(19),22-tetraene-1,3,24-triol], the “DR (Ca) (dose ratio for hypercalcemia, test substance dose/reference substance dose for comparable actions)” value [2] is reported as >300, the “DR (HL 60) (dose ratio test substance/reference substance for comparable semi-maximum actions)” value (HL 60 cells) is reported as 3.4 and the “KF (competition factor: concentration of test substance / reference substance at 50% competition)” value (vitamin D receptor) is reported as 2.

For C=C1C(=CC=C2CCCC3(C)C2CCC3C(C)C=CC(O)C2(c3ncc(CC)o3)CC2)CC(O)CC1O [C, (5Z,7E,22E)-(1S,3R,24R)-25-(5-Ethyloxazole-2-yl)-26,27-cyclo-9,10-secocholesta-5,7,10(19),22-tetraene-1,3,24-triol], the “DR (Ca) (dose ratio for hypercalcemia, test substance dose/reference substance dose for comparable actions)” value [2] was >300, the “DR (HL 60) (dose ratio test substance/reference substance for comparable semi-maximum actions)” value (HL 60 cells) was 1.3 and the “KF (competition factor: concentration of test substance / reference substance at 50% competition)” value (vitamin D receptor) was 3.

With C=C1/C(=C\C=C2/CCC[C@]3(C)[C@@H]([C@H](C)CCCC(C)(C)O)CC[C@@H]23)C[C@@H](O)C[C@@H]1O [Calcitriol, 1,25-dihydroxy vitamin D3] the “DR (Ca) (dose ratio for hypercalcemia, test substance dose/reference substance dose for comparable actions)” value [2] was 1, the “DR (Hypercalcemic threshold dose/ immunosuppressive threshold dose)” value [1] was 1 and the “DR (HL 60) (dose ratio test substance/reference substance for comparable semi-maximum actions)” value (HL 60 cells) was 1.

In the case of C=C1/C(=C\C=C2/CCC[C@]3(C)[C@@H]([C@H](C)CC[C@H](OC(C)=O)C4(c5ncc(CCCC)o5)CC4)CC[C@@H]23)C[C@@H](O)C[C@@H]1O [Compound 3a, (5Z,7E)-(1S,3R,24S)-24-Acetoxy-25-(5-butyloxazole-2-yl)-26,27-cyclo-9,10-secocholesta-5,7,10(19)-triene-1,3-diol], the “DR (Ca) (dose ratio for hypercalcemia, test substance dose/reference substance dose for comparable actions)” value [2] is reported as >1000, the “activity in vivo (prevention of the formation of edemas)” value (from here on “activity in vivo”) ([1]; result in words) is reported as “therapeutically active in vivo” and the “DR (HL 60) (dose ratio test substance/reference substance for comparable semi-maximum actions)” value (HL 60 cells) is reported as >170. The “KF (competition factor: concentration of test substance / reference substance at 50% competition)” value (vitamin D receptor) was >100 and the activity in vitro (vitamin D receptor) was “inactivity; also recorded: deficient activity”.

In the case of C=C1/C(=C\C=C2/CCC[C@]3(C)[C@@H]([C@H](C)CC[C@@H](OC(C)=O)C4(c5ncc(CCCC)o5)CC4)CC[C@@H]23)C[C@@H](O)C[C@@H]1O [Compound 3b, (5Z,7E)-(1S,3R,24R)-24-(Acetoxy)-25-(5-butyloxazole-2-yl)-26,27-cyclo-9,10-secocholesta-5,7,10(19)-triene-1,3-diol], the “DR (Ca) (dose ratio for hypercalcemia, test substance dose/reference substance dose for comparable actions)” value [2] is reported as >1000, the “activity in vivo” value ([1]; result in words) is reported as “therapeutically active in vivo” and the “DR (HL 60) (dose ratio test substance/reference substance for comparable semi-maximum actions)” value (HL 60 cells) is reported as >170. For the same compound, the “KF (competition factor: concentration of test substance / reference substance at 50% competition)” value (vitamin D receptor) was >100 and the activity in vitro (vitamin D receptor) was “inactivity; also recorded: deficient activity”.

In the case of C=C1/C(=C\C=C2/CCC[C@]3(C)[C@@H]([C@H](C)CC[C@@H](OC(=O)C(C)(C)C)C4(c5ncc(CCCC)o5)CC4)CC[C@@H]23)C[C@@H](O)C[C@@H]1O [Compound 5b], the “DR (Ca) (dose ratio for hypercalcemia, test substance dose/reference substance dose for comparable actions)” value [2] is reported as >1000, the “activity in vivo” value ([1]; result in words) is reported as “therapeutically active in vivo” and the “DR (Hypercalcemic threshold dose/ immunosuppressive threshold dose)” value [1] is reported as 20,000. For the same compound, the “DR (HL 60) (dose ratio test substance/reference substance for comparable semi-maximum actions)” value (HL 60 cells) was >170, the “KF (competition factor: concentration of test substance / reference substance at 50% competition)” value (vitamin D receptor) was >100 and the activity in vitro (vitamin D receptor) was “inactivity; also recorded: deficient activity”.

With C=C1/C(=C\C=C2/CCC[C@]3(C)[C@@H]([C@H](C)CC[C@@H](OC(=O)NC)C4(c5ncc(CCCC)o5)CC4)CC[C@@H]23)C[C@@H](O)C[C@@H]1O [Compound 11b, (5Z,7E)-(1S,3R,24R)-25-(5-Butyloxazole-2-yl)-24-[[(methylamino)-carbonyl]oxy]-26,27-cyclo-9,10-secocholesta-5,7,10(19)-triene-1,3-diol] the “therapeutic range (immunosuppressive threshold dose versus hypercalcemic threshold dose)” value ([1]; result in words, relative to compounds that have free hydroxy groups in the side chain) was “clearly improved”.

For C=C1/C(=C\C=C2/CCC[C@]3(C)[C@@H]([C@H](C)/C=C/[C@@H](O)C4(c5ncc(CCCCC)o5)CC4)CC[C@@H]23)C[C@@H](O)C[C@@H]1O [D, (5Z,7E,22E)-(1S,3R,24R)-25-(5-Pentyloxazole-2-yl)-26,27-cyclo-9,10-secocholesta-5,7,10(19),22-tetraene-1,3,24-triol], the “DR (Ca) (dose ratio for hypercalcemia, test substance dose/reference substance dose for comparable actions)” value [2] was >300, the “DR (HL 60) (dose ratio test substance/reference substance for comparable semi-maximum actions)” value (HL 60 cells) was >100 and the “KF (competition factor: concentration of test substance / reference substance at 50% competition)” value (vitamin D receptor) was 4.
